Assay [1] deals with K562S (doxorubicin-sensitive K562) chronic myelogenous leukemia cells. The experiment in a line: MTS cell viability assay, K562S cells. Format: cell-based, human. The following applies: Homo sapiens, K562, 48 h exposure, n = 3. The method, then: K562 (ATCC®, CCL-243, described here as K562S to indicate sensitivity to doxorubicin), a human chronic myelogenous leukemia cell line, was obtained from American Type Culture Collection (Manassas, VA, USA). A doxorubicin-resistant cell line (K562R, also known as K562/Adr) was kindly provided by the IRSET institute (Research Institute for Environmental and Occupational Health, INSERM, University of Rennes 1, France). The cells were maintained at 37 °C and 5% CO2 in Gibco™ 1640 Roswell Park Memorial Institute (RPMI-1640) medium containing 10% fetal bovine serum (FBS) (Life Technologies^TM, Thermo Fisher Scientific, Waltham, MA, USA).
Cell viability was evaluated with the MTS (3-(4,5-dimethylthiazol-2-yl)-5-(3-carboxymethoxyphenyl)-2-(4-sulfophenyl)-2H-tetrazolium) reduction kit, (CellTiter 96 Aqueous Non-Radioactive Cell Proliferation Assay, Promega, Fitchburg, WI, USA), according to the instructions of the manufacturer. […] Further details on experimental conditions used can be found in Delehouzé et al. 2017 [47].
In general terms: Formazan colour is commonly taken as a measure of viable cells.

Assay [2] has as its system phospho-ERK1/2 (Thr202/Tyr204). The experiment in a line: Immunoblot of phospho-ERK1/2 in K562S cells. Format: cell-based, human. The following applies: 20 µM, 6 h treatment, ImageJ band quantification. The method, then: The concentration of DMSO in the culture medium was 1%. Cell lysates were prepared by sonication of the cells in homogenization buffer with 0.5% of nonidet P-40 non-ionic detergent (NP-40) as described previously. SDS-PAGE and immunoblotting were performed following standard procedures. Anti-α-tubulin antibody (clone B512, T5168, 1:5000) was purchased from Sigma Aldrich (St. Louis, MO, USA). The anti-phospho-p44/42 MAPK (#28733–1-AP, 1:2000) was purchased from Proteintech® (Rosemont, IL, USA). This rabbit polyclonal antibody detects p44 and p42 MAPK when doubly phosphorylated (at Thr202 and Tyr204 of p44 and at Thr185 and Tyr187 of p42 MAPK).
Background: In western blotting, separated proteins are transferred to a membrane and probed.

pIC50: −log10 of the molar value. Structures can show the parent of a compound that is named as a salt.

One may read the pIC50 as −log10 of the IC50, conventionally taken in molar units. Read a low pIC50 as a large IC50.

On to `COc1cccc2c1C(=O)c1c(O)c3c(c(O)c1C2=O)C[C@@](O)(C(=O)CO)C[C@@H]3O[C@H]1C[C@H](N)[C@H](O)[C@H](C)O1` [Doxorubicin, reference compound], for which, in assay [1], the pIC50 is 6.23.
For `Cc1ccc(NC(=O)c2ccc(CN3CCN(C)CC3)cc2)cc1Nc1nccc(-c2cccnc2)n1` [imatinib mesylate, reference compound], in assay [2], the “%pERK/Tubulin” value turned out to be 1.5%.
